According to patent US20070134814A1, “Methods and compositions for the detection of calcifying nano-particles, identification and quantification of associated proteins thereon, and correlation to disease” (priority 2005, published 2007):

Tested on: freshly collected human blood
Experiment: Whole blood clotting slide test
Conditions: 10 μl solution added to plain glass slide before blood
Text: The method allows for measuring changes in the clotting time induced by contact with foreign surfaces, i.e. plain glass or coated glass, and for studying the effects of drugs on the clotting induced by foreign surface.
Venous blood was collected with venipuncture from 19 random volunteers participating in CNP epidemiological study (Ethical Committee Approval, Kuopio University). Volunteers signed an informed consent. Blood was collected with venipuncture in siliconized glass serum tubes, EDTA plasma tubes or citrate plasma tubes (Terumo), and was tested immediately after collection for whole blood clotting time on different test platforms.
200 μl of freshly drawn blood was added to pre-coated or plain glass slides which were put on a tilting shaker 15 tilts/minute at room temperature until formation of a solid clot was observed as “frozen droplet”. Experiments were carried out usually in triplicate to determine reproducibility of tests. CV % for the triplicate tests were less than 6.81% (CNP-coated slide, n=13), 8.79% (apatite-coated slide, n=15) and 10.37% (non-treated control slide, n=15). Clotting time results were analyzed by Bonferroni (Dunn) t Test (Table 1).
Therefore, to study the effects of apatite on clotting, a whole blood clotting slide test was developed. […]

Row | Structure (SMILES) | effect on clotting time
1 | CC(O)(P(=O)(O)O)P(=O)(O)O [etidronate] | did not affect the clotting time
2 | O=C([O-])CN(CCN(CC(=O)[O-])CC(=O)[O-])CC(=O)[O-].[Ca+2].[Na+].[Na+] [Calcium EDTA] | did not affect the clotting time
